Experimental data published in US12404289B2 (Gilead Sciences, Inc., priority 2020, dated 2025).
Where two headings read alike, the source gives them in different places.

Key:
Assay type in all cases: cell-based
[1] = CC50 assay (cytopathology in HEp-2 cells); settings: human
Experimental: The cytopathology of compounds in HEp-2 cells is determined in the following manner. HEp-2 cells are suspended in DMEM+GlutaMAX (supplemented with 10% FBS and 1% Penicillin/Streptomycin) and seeded into 96 well plates (3×10^3/well). After a 4-hour incubation at 37° C.+5% CO2, three-fold serial dilutions of compounds are added to each well using an HP D300e digital dispenser. The cells are then incubated for 4 days at 37° C. and 5% CO2. The final volume in each well is 200 μL. Untreated wells are included as controls for 100% cell viability, while compounds treated with 5 uM puromycin are included as controls for 0% viability. Following the incubation, 100 μL of culture supernatant is removed from each well and replaced with 100 μL of CellTiter-Glo reagent (Promega, Madison, WI, Cat #G7573). The plates are then rocked for 2 minutes followed by a 10-minute incubation at 25° C. Compound-induced cytopathic effect is then assessed by measuring luminescence signal using and Envision plate reader. Values are normalized to the untreated DMSO and puromycin-treated controls (as 100% and 0% viability, respectively) and data is fit using non-linear regression analysis using XLfit4. The CC50 value for each compound is then determined as the concentration reducing cell viability by 50%.

[2] = system: Respiratory syncytial virus (RSV) strain A2; experiment: RSV antiviral assay (HEp-2, 96 well); settings: human respiratory syncytial virus
SARS-CoV-2 = SARS-CoV-2 antiviral assay (A549-hACE2, Nano luciferase); settings: Severe acute respiratory syndrome coronavirus 2, 48 h, A549-hACE2 cells, SARS-CoV2-Nano, MOI 0.025, 48 h
[3] = HEp-2 cells, 4 days, CellTiter-Glo, Table 1, read-out: RSV CC50
[4] = HEp-2, 96 h, read-out: EC50-RSV-HEP-2-96, HEp-2 cells, RSV A2, MOI=4, 4 days, 96 well, CellTiter-Glo, Table 1
[5] = Table 1, read-out: SARS-CoV-2 EC50
[6] = Table 4, read-out: EC50 SARS CoV2

Structure (SMILES) | CC50 at 4 days [1] [nM] | EC50 ([2]; 96 h, HEp-2 cells, RSV A2, MOI=4, 4 days, 96 well, Table 2, read-out: EC50-RSV-HEP-2-96) [nM] | EC50 (SARS-CoV-2; Table 2, read-out: SARS-CoV-2 EC50) [nM] | CC50 at 4 days [1, 3] [nM] | EC50 [2, 4] [nM] | EC50 (SARS-CoV-2; [5]) [nM] | EC50 (SARS-CoV-2; [6]) [nM]
CCC(CC)COC(=O)[C@H](C)N[P@](=O)(OC[C@H]1O[C@@](C#N)(c2ccc3c(N)ncnn23)[C@H](O)[C@@H]1O)Oc1ccccc1 | 6080 | 14.9 | 110 | – | – | – | –
CC(C)OC(=O)[C@H](C)N[P@](=O)(OC[C@H]1O[C@@](C#N)(c2ccc3c(N)ncnn23)[C@H](OC(=O)C(C)C)[C@@H]1OC(=O)C(C)C)Oc1ccccc1 [Example 7, (2R,3R,4R,5R)-2-(4-aminopyrrolo[2,1-f][1,2,4]triazin-7-yl)-2-cyano-5-((((S)—(((S)-1-isopropoxy-1-oxopropan-2-yl)amino)(phenoxy)phosphoryl)oxy)methyl) tetrahydrofuran-3,4-diyl bis(2-methylpropanoate)] | – | – | – | 12600 | 77.9 | 241 | 372
CCOC(=O)[C@H](C)NP(=O)(OC[C@H]1O[C@@](C#N)(c2ccc3c(N)ncnn23)[C@H](OC(=O)CC)[C@@H]1OC(=O)CC)Oc1ccccc1 (stereo partly drawn) [Example 11, (2R,3R,4R,5R)-2-(4-aminopyrrolo[2,1-f][1,2,4]triazin-7-yl)-2-cyano-5-((((((S)-1-ethoxy-1-oxopropan-2-yl)amino)(phenoxy)phosphoryl)oxy)methyl)tetrahydrofuran-3,4-diyl Dipropionate] | – | – | – | 12800 | 67.2 | 76.8 | 208
CCOC(=O)[C@H](C)NP(=O)(OC[C@H]1O[C@@](C#N)(c2ccc3c(N)ncnn23)[C@H](OC(C)=O)[C@@H]1OC(C)=O)Oc1ccccc1 (stereo partly drawn) [Example 12, (2R,3R,4R,5R)-2-(4-aminopyrrolo[2,1-f][1,2,4]triazin-7-yl)-2-cyano-5-((((((S)-1-ethoxy-1-oxopropan-2-yl)amino)(phenoxy)phosphoryl)oxy)methyl)tetrahydrofuran-3,4-diyl Diacetate] | – | – | – | 30900 | 166 | – | 139
COC(=O)[C@H](C)NP(=O)(OC[C@H]1O[C@@](C#N)(c2ccc3c(N)ncnn23)[C@H](O)[C@@H]1O)Oc1ccc(C(C)(C)C)cc1 (stereo partly drawn) [Example 15, Methyl ((((2R,3S,4R,5R)-5-(4-aminopyrrolo[2,1-f][1,2,4]triazin-7-yl)-5-cyano-3,4-dihydroxytetrahydrofuran-2-yl)methoxy)(4-(tert-butyl)phenoxy)phosphoryl)-L-alaninate] | – | – | – | 22900 | 185 | – | 777
COC(=O)[C@H](C)NP(=O)(OC[C@H]1O[C@@](C#N)(c2ccc3c(N)ncnn23)[C@H](OC(=O)C(C)C)[C@@H]1OC(=O)C(C)C)Oc1ccc(C(C)(C)C)cc1 (stereo partly drawn) [Example 16, (2R,3R,4R,5R)-2-(4-aminopyrrolo[2,1-f][1,2,4]triazin-7-yl)-5-((((4-(tert-butyl)phenoxy)(((S)-1-methoxy-1-oxopropan-2-yl)amino)phosphoryl)oxy)methyl)-2-cyanotetrahydrofuran-3,4-diyl bis(2-methylpropanoate)] | – | – | – | 2840 | 9.3 | 83.8 | 199
CCOC(=O)[C@H](C)NP(=O)(OC[C@H]1O[C@@](C#N)(c2ccc3c(N)ncnn23)[C@H](O)[C@@H]1O)Oc1ccc(C(C)(C)C)cc1 (stereo partly drawn) [Example 17, Ethyl ((((2R,3S,4R,5R)-5-(4-aminopyrrolo[2,1-f][1,2,4]triazin-7-yl)-5-cyano-3,4-dihydroxytetrahydrofuran-2-yl)methoxy)(4-(tert-butyl)phenoxy)phosphoryl)-L-alaninate] | – | – | – | 20800 | 164 | – | 850
CCC(CC)COC(=O)[C@H](C)NP(=O)(OC[C@H]1O[C@@](C#N)(c2ccc3c(N)ncnn23)[C@H](OC(=O)C(C)C)[C@@H]1OC(=O)C(C)C)Oc1c(C)cccc1C (stereo partly drawn) [Example 20, (2R,3R,4R,5R)-2-(4-aminopyrrolo[2,1-f][1,2,4]triazin-7-yl)-2-cyano-5-((((2,6-dimethylphenoxy)(((S)-1-(2-ethylbutoxy)-1-oxopropan-2-yl)amino)phosphoryl)oxy)methyl)tetrahydrofuran-3,4-diyl bis(2-methylpropanoate)] | – | – | – | 5180 | 444 | – | –
CCOCCOCCOC(=O)[C@H](C)NP(=O)(OC[C@H]1O[C@@](C#N)(c2ccc3c(N)ncnn23)[C@H](O)[C@@H]1O)Oc1ccccc1 (stereo partly drawn) [Example 22, 2-(2-Ethoxyethoxy)ethyl ((((2R,3S,4R,5R)-5-(4-aminopyrrolo[2,1-f][1,2,4]triazin-7-yl)-5-cyano-3,4-dihydroxytetrahydrofuran-2-yl)methoxy)(phenoxy)phosphoryl)-L-alaninate] | – | – | – | > 50000 | > 4720 | – | –
CCOCCOCCOC(=O)[C@H](C)NP(=O)(OC[C@H]1O[C@@](C#N)(c2ccc3c(N)ncnn23)[C@H](OC(=O)C(C)C)[C@@H]1OC(=O)C(C)C)Oc1ccccc1 (stereo partly drawn) [Example 23, (2R,3R,4R,5R)-2-(4-Aminopyrrolo[2,1-f][1,2,4]triazin-7-yl)-2-cyano-5-((((((S)-1-(2-(2-ethoxyethoxy)ethoxy)-1-oxopropan-2-yl)amino)(phenoxy)phosphoryl)oxy)methyl)tetrahydrofuran-3,4-diyl bis(2-methylpropanoate)] | – | – | – | 5640 | 75.9 | – | –
COC(C)(C)COC(=O)[C@H](C)NP(=O)(OC[C@H]1O[C@@](C#N)(c2ccc3c(N)ncnn23)[C@H](O)[C@@H]1O)Oc1ccccc1 (stereo partly drawn) [Example 24, 2-Methoxy-2-methylpropyl ((((2R,3S,4R,5R)-5-(4-aminopyrrolo[2,1-f][1,2,4]triazin-7-yl)-5-cyano-3,4-dihydroxytetrahydrofuran-2-yl)methoxy)(phenoxy)phosphoryl)-L-alaninate] | – | – | – | > 50000 | 1470 | – | –
COC(C)(C)COC(=O)[C@H](C)NP(=O)(OC[C@H]1O[C@@](C#N)(c2ccc3c(N)ncnn23)[C@H](OC(=O)C(C)C)[C@@H]1OC(=O)C(C)C)Oc1ccccc1 (stereo partly drawn) [Example 25, (2R,3R,4R,5R)-2-(4-aminopyrrolo[2,1-f][1,2,4]triazin-7-yl)-2-cyano-5-((((((S)-1-(2-methoxy-2-methylpropoxy)-1-oxopropan-2-yl)amino)(phenoxy)phosphoryl)oxy)methyl)tetrahydrofuran-3,4-diyl bis(2-methylpropanoate)] | – | – | – | 4780 | 11.1 | 122 | 350
CCC(CC)COC(=O)[C@H](C)NP(=O)(OC[C@H]1O[C@@](C#N)(c2ccc3c(N)ncnn23)[C@H](OC(=O)C(C)C)[C@@H]1OC(=O)C(C)C)Oc1cc(C)ccc1C(C)C (stereo partly drawn) [Example 27, (2R,3R,4R,5R)-2-(4-Aminopyrrolo[2,1-f][1,2,4]triazin-7-yl)-2-cyano-5-((((((S)-1-(2-ethylbutoxy)-1-oxopropan-2-yl)amino)(2-isopropyl-5-methylphenoxy)phosphoryl)oxy)methyl)tetrahydrofuran-3,4-diyl bis(2-methylpropanoate)] | – | – | – | 5860 | 958 | – | –
